Tests used:
Conditions in all cases: concentration of 100 nM
[1] = target: BRaf (Homo sapiens, UniProt P15056); test: KINOMEscan competition binding assay, selectivity against off-target BRaf
Procedure: (§1) The assay was performed by combining three components: DNA-tagged kinase; immobilized ligand; and a test compound. The ability of the test compound to compete with the immobilized ligand was measured via quantitative PCR of the DNA tag. The technology is described in detail in Fabian, M. A. et al. A small molecule-kinase interaction map for clinical kinase inhibitors. Nat. […] M. W. et al. A quantitative analysis of kinase inhibitor selectivity, Nat.
(§2) The test compounds were provided as 10 mM stock solutions. The test solutions at indicated final concentrations were prepared at DiscoverX.

[2] = target: T1, JNK1 (Homo sapiens, UniProt P45983); test: KINOMEscan competition binding assay, selectivity against off-target JNK1
T1 construct: M1/Q384; host or cells: HEK-293
Procedure: as §1
(§3) For investigation of the affinity to MKK4, MKK7 and JNK1, the kinases were produced in HEK-293 cells and subsequently tagged with DNA for qPCR detection. […] The liganded beads were blocked with excess biotin and washed with blocking buffer (SEABLOCK™ (Pierce), 1% BSA, 0.05% TWEEN®20, 1 mM DTT) to remove unbound ligand and to reduce nonspecific binding. […] All reactions were performed in polystyrene 96-well plates in a final volume of 0.135 mL. […] The kinase concentration in the eluates was measured by qPCR.
as §2

[3] = target: T2, MKK4 (Homo sapiens, UniProt P45985); test: KINOMEscan competition binding assay, MKK4 potency
T2 construct: S84/D399; host or cells: HEK-293
T2 sequence (P45985 84-399): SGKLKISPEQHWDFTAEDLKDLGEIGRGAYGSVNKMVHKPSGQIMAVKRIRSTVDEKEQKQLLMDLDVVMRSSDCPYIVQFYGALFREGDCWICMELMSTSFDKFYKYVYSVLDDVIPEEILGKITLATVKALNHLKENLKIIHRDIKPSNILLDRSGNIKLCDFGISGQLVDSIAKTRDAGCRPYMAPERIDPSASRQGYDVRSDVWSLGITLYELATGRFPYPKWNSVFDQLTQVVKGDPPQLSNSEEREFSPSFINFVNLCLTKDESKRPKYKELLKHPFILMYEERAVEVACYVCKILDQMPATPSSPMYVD
Procedure: as §1, §3, §2

[4] = target: T3, MKK7 (Homo sapiens, UniProt O14733); test: KINOMEscan competition binding assay, selectivity against off-target MKK7
T3 construct: M1/R419; host or cells: HEK-293
T3 sequence (O14733 1-419): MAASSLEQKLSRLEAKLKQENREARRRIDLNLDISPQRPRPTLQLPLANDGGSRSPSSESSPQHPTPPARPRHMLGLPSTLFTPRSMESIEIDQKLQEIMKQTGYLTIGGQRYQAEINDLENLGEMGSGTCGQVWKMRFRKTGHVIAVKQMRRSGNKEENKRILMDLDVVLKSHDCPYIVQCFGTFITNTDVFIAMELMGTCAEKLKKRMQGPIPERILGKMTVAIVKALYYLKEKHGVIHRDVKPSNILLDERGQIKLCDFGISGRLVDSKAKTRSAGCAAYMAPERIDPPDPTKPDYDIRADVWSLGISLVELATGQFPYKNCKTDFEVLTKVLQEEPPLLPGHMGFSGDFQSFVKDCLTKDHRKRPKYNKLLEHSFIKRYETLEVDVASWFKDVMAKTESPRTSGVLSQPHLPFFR
Procedure: as §1, §3, §2

T1 sequence (P45983 1-384 isoform P45983-2): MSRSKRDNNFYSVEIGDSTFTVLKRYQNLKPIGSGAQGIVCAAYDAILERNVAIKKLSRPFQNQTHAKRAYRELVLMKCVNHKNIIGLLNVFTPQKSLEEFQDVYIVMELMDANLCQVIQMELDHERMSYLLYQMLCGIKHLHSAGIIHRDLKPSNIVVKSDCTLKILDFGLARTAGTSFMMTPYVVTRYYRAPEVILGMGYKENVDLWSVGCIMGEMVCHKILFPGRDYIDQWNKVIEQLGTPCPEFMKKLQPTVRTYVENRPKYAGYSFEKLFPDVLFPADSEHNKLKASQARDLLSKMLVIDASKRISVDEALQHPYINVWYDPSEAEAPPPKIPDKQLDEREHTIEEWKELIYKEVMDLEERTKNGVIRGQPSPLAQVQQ
BRaf, sequence (P15056 whole entry): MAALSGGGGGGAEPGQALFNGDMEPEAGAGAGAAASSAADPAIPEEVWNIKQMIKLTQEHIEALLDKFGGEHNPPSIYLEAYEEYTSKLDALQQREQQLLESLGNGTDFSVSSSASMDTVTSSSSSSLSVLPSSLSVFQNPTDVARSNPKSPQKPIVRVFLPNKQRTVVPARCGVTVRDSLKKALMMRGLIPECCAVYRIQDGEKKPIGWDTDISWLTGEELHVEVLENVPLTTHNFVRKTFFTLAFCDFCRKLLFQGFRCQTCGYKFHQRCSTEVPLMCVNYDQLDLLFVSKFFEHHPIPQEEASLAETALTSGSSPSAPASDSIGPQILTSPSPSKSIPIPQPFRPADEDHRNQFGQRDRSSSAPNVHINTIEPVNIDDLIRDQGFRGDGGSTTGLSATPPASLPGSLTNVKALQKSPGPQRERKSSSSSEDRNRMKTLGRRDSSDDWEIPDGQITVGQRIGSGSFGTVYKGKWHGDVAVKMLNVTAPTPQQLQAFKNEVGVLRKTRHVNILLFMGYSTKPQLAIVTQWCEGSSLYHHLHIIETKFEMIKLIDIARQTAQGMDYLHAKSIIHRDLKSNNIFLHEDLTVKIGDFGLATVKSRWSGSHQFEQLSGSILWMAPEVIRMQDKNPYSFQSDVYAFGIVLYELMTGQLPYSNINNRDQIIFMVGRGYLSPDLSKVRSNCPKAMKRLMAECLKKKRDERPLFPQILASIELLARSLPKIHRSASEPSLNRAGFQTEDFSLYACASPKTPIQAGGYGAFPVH

Row | Compound | Selectivity vs. BRaf, ratio PoC(BRaf)/PoC(MKK4) [1] | Selectivity vs. JNK1, ratio PoC(JNK1)/PoC(MKK4) [2] | MKK4, residual percent of control binding (PoC) [3] | Selectivity vs. MKK7, ratio PoC(MKK7)/PoC(MKK4) [4]
1 | CCCS(=O)(=O)Nc1ccc(F)c(C(=O)c2n[nH]c3ncc(-c4ccc(OC)cc4)cc23)c1F [Example 6, N-(2,4-difluoro-3-(5-(4-methoxyphenyl)-1H-pyrazo-lo[3,4-b]pyridine-3-carbonyl)-phenyl)propane-1-sulfon-amide] | O (PoC(BRaf)/PoC(MKK4) < 3) | ++ (30 > PoC(JNK1)/PoC(MKK4) ≥ 10) | ++ (1 ≤ PoC < 10) | ++ (30 > PoC(MKK7)/PoC(MKK4) ≥ 10)
2 | CCCS(=O)(=O)Nc1ccc(F)c(C(=O)c2n[nH]c3ncc(-c4cccc(Cl)c4)cc23)c1F [Example 7, N-(3-(5-(3-chlorophenyl)-1H-pyrazolo[3,4-b]pyridine-3-carbonyl)-2,4-difluorophenyl)-propane-1-sulfonamide] | O (PoC(BRaf)/PoC(MKK4) < 3) | O (PoC(JNK1)/PoC(MKK4) < 3) | O (PoC ≥ 30) | O (PoC(MKK7)/PoC(MKK4) < 3)
3 | CCCS(=O)(=O)Nc1ccc(F)c(C(=O)c2n[nH]c3ncc(-c4ccc(C(C)(C)C)cc4)cc23)c1F [Example 10, N-(3-(5-(4-tert-butylphenyl)-1H-pyrazolo[3,4-b]pyridine-3-carbonyl)-2,4-difluoro-phenyl)propane-1-sulfon-amide] | O (PoC(BRaf)/PoC(MKK4) < 3) | O (PoC(JNK1)/PoC(MKK4) < 3) | O (PoC ≥ 30) | O (PoC(MKK7)/PoC(MKK4) < 3)
4 | CCCS(=O)(=O)Nc1ccc(F)c(C(=O)c2n[nH]c3ncc(-c4ccc(C(C)C)cc4)cc23)c1F [Example 11, N-(2,4-difluoro-3-(5-(4-isopropylphenyl)-1H-pyrazo-lo[3,4-b]pyridine-3-carbonyl)phenyl)propane-1-sulfon-amide] | + (10 > PoC(BRaf)/PoC(MKK4) ≥ 3) | + (10 > PoC(JNK1)/PoC(MKK4) ≥ 3) | + (10 ≤ PoC < 30) | + (10 > PoC(MKK7)/PoC(MKK4) ≥ 3)
5 | CCCS(=O)(=O)Nc1ccc(F)c(C(=O)c2n[nH]c3ncc(-c4ccc(C)c(C)c4)cc23)c1F [Example 12, N-(3-(5-(3,4-dimethyl-phenyl)-1H-pyrazolo[3,4-b]pyridine-3-carbonyl)-2,4-difluorophenyl)-propane-1-sulfonamide] | O (PoC(BRaf)/PoC(MKK4) < 3) | + (10 > PoC(JNK1)/PoC(MKK4) ≥ 3) | + (10 ≤ PoC < 30) | + (10 > PoC(MKK7)/PoC(MKK4) ≥ 3)
6 | CCCS(=O)(=O)Nc1ccc(F)c(C(=O)c2n[nH]c3ncc(-c4cccc(F)c4)cc23)c1F [Example 16, N-(2,4-difluoro-3-(5-(3-fluorophenyl)-1H-pyrazo-lo[3,4-b]pyridine-3-carbonyl)-phenyl)propane-1-sulfon-amide] | O (PoC(BRaf)/PoC(MKK4) < 3) | ++ (30 > PoC(JNK1)/PoC(MKK4) ≥ 10) | ++ (1 ≤ PoC < 10) | ++ (30 > PoC(MKK7)/PoC(MKK4) ≥ 10)
7 | CCCS(=O)(=O)Nc1ccc(F)c(C(=O)c2n[nH]c3ncc(-c4ccc(C)cc4)cc23)c1F [Example 20, N-(2,4-difluoro-3-(5-p-tolyl-1H-pyrazolo[3,4-b]pyridine-3-carbonyl)phenyl)propane-1-sulfonamide] | O (PoC(BRaf)/PoC(MKK4) < 3) | ++ (30 > PoC(JNK1)/PoC(MKK4) ≥ 10) | ++ (1 ≤ PoC < 10) | ++ (30 > PoC(MKK7)/PoC(MKK4) ≥ 10)
8 | CCCS(=O)(=O)Nc1ccc(F)c(C(=O)c2n[nH]c3ncc(-c4cc(Cl)cc(Cl)c4)cc23)c1F [Example 22, N-(3-(5-(3,5-dichloro-phenyl)-1H-pyrazolo[3,4-b]pyridine-3-carbonyl)-2,4-difluoro-phenyl)propane-1-sulfon-amide] | O (PoC(BRaf)/PoC(MKK4) < 3) | O (PoC(JNK1)/PoC(MKK4) < 3) | O (PoC ≥ 30) | O (PoC(MKK7)/PoC(MKK4) < 3)
9 | CCCS(=O)(=O)Nc1ccc(F)c(C(=O)c2n[nH]c3ncc(-c4ccccc4N)cc23)c1F [Example 26, N-(3-(5-(2-aminophenyl)-1H-pyrazolo[3,4-b]pyridine-3-carbonyl)-2,4-difluorophenyl)-propane-1-sulfonamide] | + (10 > PoC(BRaf)/PoC(MKK4) ≥ 3) | + (10 > PoC(JNK1)/PoC(MKK4) ≥ 3) | + (10 ≤ PoC < 30) | + (10 > PoC(MKK7)/PoC(MKK4) ≥ 3)
10 | CCCS(=O)(=O)Nc1ccc(F)c(C(=O)c2n[nH]c3ncc(-c4cccc(N(C)C)c4)cc23)c1F [Example 28, N-(3-(5-(3-(dimethyl-amino)phenyl)-1H-pyrazo-lo[3,4-b]pyridine-3-carbonyl)-2,4-difluoro-phenyl)propane-1-sulfonamide] | O (PoC(BRaf)/PoC(MKK4) < 3) | + (10 > PoC(JNK1)/PoC(MKK4) ≥ 3) | + (10 ≤ PoC < 30) | + (10 > PoC(MKK7)/PoC(MKK4) ≥ 3)
11 | CCCS(=O)(=O)Nc1ccc(F)c(C(=O)c2n[nH]c3ncc(-c4cccc(C)c4)cc23)c1F [Example 29, N-(2,4-difluoro-3-(5-m-tolyl-1H-pyrazolo[3,4-b]pyridine-3-carbonyl)phenyl)propane-1-sulfonamide] | O (PoC(BRaf)/PoC(MKK4) < 3) | + (10 > PoC(JNK1)/PoC(MKK4) ≥ 3) | + (10 ≤ PoC < 30) | + (10 > PoC(MKK7)/PoC(MKK4) ≥ 3)
12 | CCCS(=O)(=O)Nc1ccc(F)c(C(=O)c2n[nH]c3ncc(-c4cccc(C(F)(F)F)c4)cc23)c1F [Example 30, N-(2,4-difluoro-3-(5-(3-(trifluoromethyl)phenyl)-1H-pyrazolo[3,4-b]pyridine-3-carbonyl)phenyl)propane-1-sulfonamide] | O (PoC(BRaf)/PoC(MKK4) < 3) | O (PoC(JNK1)/PoC(MKK4) < 3) | O (PoC ≥ 30) | O (PoC(MKK7)/PoC(MKK4) < 3)
13 | CCCS(=O)(=O)Nc1ccc(F)c(C(=O)c2n[nH]c3ncc(-c4ccc(Cl)c(Cl)c4)cc23)c1F [Example 33, N-(3-(5-(3,4-dichloro-phenyl)-1H-pyrazolo[3,4-b]pyridine-3-carbonyl)-2,4-difluoro-phenyl)-propane-1-sulfon-amide] | O (PoC(BRaf)/PoC(MKK4) < 3) | O (PoC(JNK1)/PoC(MKK4) < 3) | O (PoC ≥ 30) | O (PoC(MKK7)/PoC(MKK4) < 3)
14 | CCCS(=O)(=O)Nc1ccc(F)c(C(=O)c2n[nH]c3ncc(-c4ccc(C(F)(F)F)cc4)cc23)c1F [Example 34, N-(2,4-difluoro-3-(5-(4-(trifluoromethyl)phenyl)-1H-pyrazolo[3,4-b]pyridine-3-carbonyl)-phenyl)propane-1-sulfonamide] | O (PoC(BRaf)/PoC(MKK4) < 3) | O (PoC(JNK1)/PoC(MKK4) < 3) | + (10 ≤ PoC < 30) | + (10 > PoC(MKK7)/PoC(MKK4) ≥ 3)
15 | CCCS(=O)(=O)Nc1ccc(F)c(C(=O)c2n[nH]c3ncc(-c4ccc(Cl)cc4Cl)cc23)c1F [Example 35, N-(3-(5-(2,4-dichlorophenyl)-1H-pyrazolo[3,4-b]pyridine-3-carbonyl)-2,4-difluoro-phenyl)propane-1-sulfonamide] | + (10 > PoC(BRaf)/PoC(MKK4) ≥ 3) | + (10 > PoC(JNK1)/PoC(MKK4) ≥ 3) | + (10 ≤ PoC < 30) | + (10 > PoC(MKK7)/PoC(MKK4) ≥ 3)

Source: patent publication US12264158B2, “Protein kinase MKK4 inhibitors for promoting liver regeneration or reducing or preventing hepatocyte death” (HEPAREGENIX GMBH, priority 2018, dated 2025)
